Measured values from paper PMC7751416, “Novel positive allosteric modulators of A2B adenosine receptor acting as bone mineralisation promoters” (Journal of Enzyme Inhibition and Medicinal Chemistry, 2020).

Columns and labels:
MSCs [1] = system: MSCs; set-up: method as in PMID 25241343; conditions: read-out: EC50, potency on MSCs; cited from earlier work
MSCs [2] = experiment: Quantification of mineralisation (Alizarin Red staining) by MSCs-derived osteoblasts; format: cell-based, human; conditions: MSCs 15 days in osteogenic medium, mean ± SEM
Method: Human bone marrow derived MSCs were cultured in normal growth medium (MSCGM, Sigma Aldrich), plated (5.000 cells/cm^2) in 75-cm^2 flasks and incubated at 37 °C in 5% CO2 and 95% air. The medium was changed to remove non adherent cells every 3 to 4 days and the cells were used at passages 2 to 6.
MSCs were seeded at a density of 3300 cells/cm^2 and maintained in growth medium for 2 days. Then, medium was replaced with Mesenchymal Stem Cell Osteogenic Differentiation Medium (Cat. N. C-28013, Sigma Aldrich) and treated in the absence (control) or in the presence of BAY60-6583 (5 nM) alone or in combination with the new compounds. Treatments were repeated every 3 days and the mineralisation was quantified after 15 days of treatment. The rate of mineralisation was quantified using alizarin red staining as previously reported. Briefly, cells were washed with PBS, fixed (4% formaldehyde in PBS) for 15 min and washed three times with PBS. Then, Alizarin Red S (1:100 in distilled water, adjusted to pH 4.2 and filtered) was added and incubated for 20 min, at the end cells were washed (five times) in 50% ethanol and air dried. For quantification, cells were destained overnight in 10% (w/v) cetylpyridinium chloride at room temperature and the absorbance was read using a spectrophotometer (Victor Wallac 2, Perkin Elmer) at 562 nm.
Figure 1. Effects of the new compounds on mineralisation mediated by MSCs-derived osteoblast. MSCs were cultured for 15 days in osteogenic medium with compounds at 1 μM concentration in the presence (A) or in the absence (B) of the A2B AR agonist BAY60-6583 (5 nM). After treatments, cells were stained with Alizarin Red and mineralisation was evaluated as reported in Experimental section. Data are expressed as percentage of mineralisation versus the CTRL set to 100% and represent the mean ± SEM of at least two independent experiments. Each experiment was performed in duplicate. *p < 0.05; **p < 0.01; ***p < 0.001 vs. CTRL. #p < 0.05; ###p < 0.001 vs. BAY60-6583 or NECA.

[3] = target: T1, human A1 adenosine receptors (Homo sapiens, UniProt P30542); experiment: Human A1 adenosine receptor competition binding ([3H]DPCPX, CHO cell membranes); conditions: radioligand binding, A1 AR
T1 construct: K. N. Klotz, Wurzburg University (gift); host or cells: CHO cells, stably transfected; membranes used
T1 sequence (P30542 1-326): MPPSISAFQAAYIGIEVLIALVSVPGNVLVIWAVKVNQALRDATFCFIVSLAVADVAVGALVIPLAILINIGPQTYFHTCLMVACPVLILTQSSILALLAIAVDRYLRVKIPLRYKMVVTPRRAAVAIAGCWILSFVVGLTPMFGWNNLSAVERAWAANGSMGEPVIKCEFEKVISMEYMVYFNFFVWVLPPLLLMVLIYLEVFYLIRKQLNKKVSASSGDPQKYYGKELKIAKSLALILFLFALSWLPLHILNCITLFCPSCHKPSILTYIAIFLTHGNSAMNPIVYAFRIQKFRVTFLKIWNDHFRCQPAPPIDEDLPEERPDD
Method: (§1) ADA (Cat. N. 10102105001) was from Sigma Aldrich (Italy). All other reagents were from commercial sources and of the highest commercially available grade. CHO cells stably expressing human A1, A2A, A3 and A2B ARs were kindly supplied by Prof. K. N. Klotz, Wurzburg University, Germany. MSCs (Cat. N. SCC034) were purchased by Sigma Aldrich (Milan, Italy).
Competition binding experiments were performed as previously reported. […] R-PIA (50 µM) was used for the determination of non-specific binding.

[4] = target: T2, human A2A adenosine receptors (Homo sapiens, UniProt P29274); experiment: Human A2A adenosine receptor competition binding ([3H]NECA, CHO cell membranes); conditions: radioligand binding, A2A AR
T2 construct: K. N. Klotz, Wurzburg University (gift); host or cells: CHO cells, stably transfected; membranes used
T2 sequence (P29274 whole entry): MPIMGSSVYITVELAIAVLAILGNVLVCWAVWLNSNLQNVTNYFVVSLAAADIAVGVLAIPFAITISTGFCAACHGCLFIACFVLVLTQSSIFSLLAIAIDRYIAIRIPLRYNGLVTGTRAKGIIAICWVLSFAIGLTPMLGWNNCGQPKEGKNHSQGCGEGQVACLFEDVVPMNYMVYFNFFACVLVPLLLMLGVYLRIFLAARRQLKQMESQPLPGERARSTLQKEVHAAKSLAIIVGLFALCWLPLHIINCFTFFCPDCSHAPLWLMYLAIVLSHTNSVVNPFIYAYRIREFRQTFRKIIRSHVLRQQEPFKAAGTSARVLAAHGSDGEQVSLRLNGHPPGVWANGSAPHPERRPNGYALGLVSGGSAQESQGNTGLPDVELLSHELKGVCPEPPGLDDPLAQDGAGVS
Method: as §1
(§2) Competition binding experiments were performed as previously reported. Briefly, membranes of A2A CHO cells were incubated at 25 °C for 90 min in 500 µL of buffer in the presence of [^3H]NECA (30 nM) and six different concentrations of the newly synthesised compounds. NECA (100 µM) was used for the determination of non-specific binding.

[5] = target: T3, human A3 adenosine receptors (Homo sapiens, UniProt P0DMS8); experiment: Human A3 adenosine receptor competition binding ([3H]NECA, CHO cell membranes); conditions: radioligand binding, A3 AR
T3 construct: K. N. Klotz, Wurzburg University (gift); host or cells: CHO cells, stably transfected; membranes used
T3 sequence (P0DMS8 1-318): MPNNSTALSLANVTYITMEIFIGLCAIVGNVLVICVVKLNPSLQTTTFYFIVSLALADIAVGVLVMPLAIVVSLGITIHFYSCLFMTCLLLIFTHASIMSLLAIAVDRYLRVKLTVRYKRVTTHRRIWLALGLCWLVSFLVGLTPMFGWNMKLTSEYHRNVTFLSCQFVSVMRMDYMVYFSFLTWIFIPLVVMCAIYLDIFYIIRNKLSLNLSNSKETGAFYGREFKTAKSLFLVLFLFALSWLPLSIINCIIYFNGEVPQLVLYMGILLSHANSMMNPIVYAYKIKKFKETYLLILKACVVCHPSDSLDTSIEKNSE
Method: as §1
as §2, with “Briefly, cell” for “Briefly,”, “A3” for “A2A”, “180” for “90”

human A2B AR = target: T4, human A2B AR (Homo sapiens, UniProt P29275); experiment: Measurement of cyclic AMP levels in A2B AR CHO cells; format: cell-based
T4 construct: K. N. Klotz, Wurzburg University (gift); host or cells: CHO cells, stably transfected
T4 sequence (P29275 1-332): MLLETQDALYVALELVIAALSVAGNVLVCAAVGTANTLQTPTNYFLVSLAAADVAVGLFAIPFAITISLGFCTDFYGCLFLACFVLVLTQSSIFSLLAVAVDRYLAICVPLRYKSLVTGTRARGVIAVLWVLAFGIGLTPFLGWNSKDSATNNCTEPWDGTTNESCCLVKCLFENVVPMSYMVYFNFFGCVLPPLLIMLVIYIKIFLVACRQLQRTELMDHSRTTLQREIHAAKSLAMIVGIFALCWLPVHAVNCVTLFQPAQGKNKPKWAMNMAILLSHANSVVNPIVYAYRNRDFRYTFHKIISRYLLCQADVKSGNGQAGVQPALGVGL
Method: Intracellular cyclic AMP (cAMP) levels were measured using a competitive protein binding method, as previously reported[31] A2B AR CHO cells were seed at a density of 24 000 cell/cm^2 in a 24 multiwell plate. After 48 h, the medium was removed and the cells were incubated at 37 °C for 15 min with 500 µL of Dulbecco’s Modified Eagle Medium (DMEM) in the presence of ADA (1 U/mL) and the phosphodiesterase inhibitor Ro20-1724 (20 µM).
The agonist efficacy profile of the compounds at ARs was evaluated by assessing their ability to modulate intracellular cAMP levels in the absence of standard agonists. The antagonism profile of the new compounds was evaluated by assessing their ability to inhibit 100 nM NECA-mediated accumulation of cAMP. The new compounds were incubated 10 min before the addiction of the agonists. Then, cells were incubated in the reaction medium for 15 min at 37 °C. The reaction was stopped by the removal of the medium and the addition of 0.4 N HCl. After 30 min, lysates were neutralised with 4 N KOH and the suspension was centrifuged at 800 g for 5 min. For the determination of cAMP production, bovine adrenal cAMP-binding protein was incubated with [^3H]cAMP (2 nM) at 0 °C for 150 min in a total volume of 300 µL. Bound radioactivity was separated by rapid filtration. The radioactivity was measured by liquid scintillation spectrometry.
Figure 2. Effects of compound 9 as positive allosteric modulator of the A2B AR. A) Effects of 9 on NECA-mediated cAMP accumulation in human A2B AR-transfected CHO cells. CHO cells were treated with an EC50 NECA concentration (100 nM) in the absence or presence of different concentrations of the tested compound (1 nM–10 μM). […] CHO cells were treated with different NECA concentration (1 nM–10 μM) in the absence or presence of 9 (650 nM or 6.5 μM). After 15 min incubation, the reaction was stopped and the intracellular cAMP levels were quantified. The data are expressed as the percentage of cAMP/well versus the maximal NECA effect, which was set to 100% and represent the mean ± SEM of at least three different experiments. Each experiment was performed in duplicate.

[6] = compound 1 μM alone, in the absence of BAY60-6583
[7] = compound 1 μM in the presence of BAY60-6583 (5 nM)
[8] = NECA concentration-response curves (1 nM-10 μM) in absence or presence of 9 (650 nM and 6.5 µM)

| Structure (SMILES) | melting point [°C] | percentage of mineralisation versus the CTRL set to 100% (MSCs [2]; [6]) | percentage of mineralisation versus the CTRL set to 100% (MSCs [2]; [7]) [%] | also measured |
| --- | --- | --- | --- | --- |
| N#Cc1c(N)nc(SCC(N)=O)c(C#N)c1-c1ccc(OCC2CC2)cc1 [BAY60-6583, reference compound] |  |  |  | EC50 (MSCs [1]): 6 nM; percentage of mineralisation versus the CTRL set to 100% (MSCs [2]; BAY60-6583 5 nM alone): 129.5 ± 1.9% |
| O=C(Nc1ccccc1)C(=O)c1cn(CCc2ccccc2)c2ccccc12 [Compound 4] | 139 to 140 | 130.0 ± 6.8% | 179.2 ± 9.6 |  |
| O=C(NCc1ccccc1)C(=O)c1cn(CCc2ccccc2)c2ccccc12 [Compound 5, N-Benzyl-2-(1-phenylethyl-1H-indol-3-yl)glyoxylamide] | 83 to 85 | 128.7 ± 3.6% | 152.3 ± 4.3 |  |
| Cn1cc(C(=O)C(=O)Nc2ccccc2)c2ccccc21 [Compound 6, N-Phenyl-2-(1-methyl-1H-indol-3-yl)glyoxylamide] | 167 to 169 |  |  |  |
| Cn1cc(C(=O)C(=O)NCc2ccccc2)c2ccccc21 [Compound 7, N-Benzyl-2-(1-methyl-1H-indol-3-yl)glyoxylamide] | 147 to 149 |  |  |  |
| O=C(NCc1ccccc1)C(=O)c1csc2ccccc12 [Compound 8, N-Benzyl-2-(benzothien-3-yl)glyoxylamide] | 87 to 89 | inactivity |  |  |
| O=C(NCc1ccc(Cl)cc1)C(=O)c1cc2ccccc2o1 [Compound 9, N-(4-Chlorobenzyl)-2-(benzofuran-2-yl)glyoxylamide] | 137 to 139 | 111.5 ± 4.6% | 156.8 ± 7.6 | Ki [3]: > 10000 nM; Ki [4]: > 10000 nM; Ki [5]: > 10000 nM; effect on efficacy of NECA in stimulating cAMP accumulation (human A2B AR; [8]): significantly enhanced the efficacy of NECA; effect on potency of NECA in stimulating cAMP accumulation (human A2B AR; [8]): without affecting agonist potency; EC50 (human A2B AR; compound 1 nM-10 µM in the presence of NECA 100 nM, human A2B AR-transfected CHO cells, read-out: EC50, positive allosteric modulation of A2B AR (NECA-mediated cAMP accumulation)): 636 ± 65.3 nM; % cAMP production (vs NECA 100 nM set to 100%), Alone (human A2B AR; compound 10 µM alone, CHO cells expressing human A2B AR, mean ± SEM): 2.7 ± 1.3%; % cAMP production (vs NECA 100 nM set to 100%), + agonist (human A2B AR; compound 10 µM in the presence of NECA (100 nM), CHO cells expressing human A2B AR, mean ± SEM): 184.0 ± 11.7 % |
| O=C(NCc1ccccc1)C(=O)c1cccs1 [Compound 10, N-Benzyl-2-(thien-2-yl)glyoxylamide] | 95.6 to 95.8 | inactivity | 150.6 ± 2.6 |  |
| Cn1cc(C(=O)C(=O)c2ccccc2)c2ccccc21 [Compound 13, 1-(1-Methyl-1H-indol-3-yl)-2-phenyl-1,2-ethanedione] | 88 to 90 |  |  |  |
